Measurements: patent publication US20150011566A1, “N-PHENYLPIPERAZINE DERIVATIVES THAT ARE ANTAGONISTS OF A1A, A1D ADRENOCEPTORS AND 5-HT1A RECEPTORS FOR THE TREATMENT OF BENIGN PROSTATE HYPERPLASIA, PHARMACEUTICAL COMPOSITIONS CONTAINING THE SAME” (UNIVERSIDADE FEDERAL DO RIO DE JANEIRO-UFRJ, priority 2012, published 2015)
Structures can show the parent of a compound that is named as a salt. Marks after values point to notes of the source that are not given here. Blank lines part the entries; values can stand above or below the compound they belong to.

Legend:
5-HT1A receptors [1] = target: T1, 5-HT1A receptors (Rattus norvegicus, UniProt P19327); test: Binding of [3H]p-MPPF with GTP to 5-HT1A receptors; intrinsic activity (Ki low/Ki high); settings: Table 13; from Ki low/Ki high
T1 construct: Intrinsic Activity at Native 5-HT1A Receptors; from tissue; host or cells: rat hippocampus membranes
T1 sequence (P19327 1-422): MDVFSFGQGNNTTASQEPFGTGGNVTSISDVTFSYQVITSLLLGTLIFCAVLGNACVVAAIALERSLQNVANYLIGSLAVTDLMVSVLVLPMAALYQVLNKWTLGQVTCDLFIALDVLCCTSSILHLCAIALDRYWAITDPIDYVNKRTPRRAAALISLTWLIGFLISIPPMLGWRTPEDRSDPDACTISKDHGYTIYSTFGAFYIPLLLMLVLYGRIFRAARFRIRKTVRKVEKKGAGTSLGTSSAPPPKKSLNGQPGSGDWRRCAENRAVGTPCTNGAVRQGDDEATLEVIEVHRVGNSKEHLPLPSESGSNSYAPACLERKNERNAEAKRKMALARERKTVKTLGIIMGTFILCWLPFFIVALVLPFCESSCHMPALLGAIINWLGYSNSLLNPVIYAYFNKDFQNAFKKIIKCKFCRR
Procedure: Membrane preparations of rat hippocampus according to previously described by HALL et al (1985) and PEROUTKA (1986) were performed. The homogenization and centrifugation steps were performed identically to that described above for receptors α2A and 5-HT2A receptors.
The binding assays for the 5-HT1A receptors were performed as described previously in the literature and previously standardized in the laboratory through saturation experiments. […] (solvent for dilution of LDT's) for the determination of total binding, or 50 μL non-radioative serotonin at 10 μM to determine the non-specific binding (final volume of 500 μL). Assays were performed in triplicate. […] Assays were performed in triplicate.
After the incubation period, the reaction was stopped by adding 4 ml of ice-cold solution containing 5 mM Tris (pH 7.4), followed by vacuum filtration on glass fiber filter (GMF 3, Filtrak®) previously soaked with solution 0.5% polyethylenoimine. The filters were washed three times with 4 mL of ice-cold solution containing 5 mM Tris (pH 7.4) under vacuum to remove all free radioligand. Then the filters were dried and placed in vials containing 5 ml scintillation fluid (composition: 4% PPO, 0.1% POPOP w/p in toluene). The radioactivity retained on the filters was then determined in a liquid scintillation counter (Packard Tri-Carb 1600 TR). […] For these receptors were also determined the […] and Ki parameters.
The GTP presence displaces the GPCR to a state of low affinity (Lahti et al, 1992). The intrinsic activity of a substance can be estimated using GPCR agonist or antagonist radioligand appropriate to define the affinity of the substance in the state of high and low affinity receptor, respectively.

5-HT1A receptors [2] = target: T2, 5-HT1A receptors (Homo sapiens, UniProt P08908); test: Cell proliferation in vitro, DU-145 cells stimulated with 5-HT (MTT); format: cell-based; settings: 48 h
T2 construct: endogenous in cells; host or cells: DU-145
T2 sequence (P08908 1-422): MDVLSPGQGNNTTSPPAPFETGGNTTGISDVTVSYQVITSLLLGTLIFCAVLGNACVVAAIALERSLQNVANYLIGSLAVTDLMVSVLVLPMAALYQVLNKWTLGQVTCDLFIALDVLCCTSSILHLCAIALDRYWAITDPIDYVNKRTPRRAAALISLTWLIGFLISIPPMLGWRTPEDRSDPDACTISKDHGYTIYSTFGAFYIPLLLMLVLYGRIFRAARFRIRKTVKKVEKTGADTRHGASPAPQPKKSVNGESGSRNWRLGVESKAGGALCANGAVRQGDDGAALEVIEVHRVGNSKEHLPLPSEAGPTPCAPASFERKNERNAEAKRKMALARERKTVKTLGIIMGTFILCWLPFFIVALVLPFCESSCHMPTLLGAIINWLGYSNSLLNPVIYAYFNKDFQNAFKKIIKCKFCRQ
Procedure: (§1) Human prostate cancer cells (DU-145) were cultured in medium (RPMI 1640) until confluence. Then the cells were dissociated, plated (5×10^3 cells/well) and maintained in medium free of fetal bovine serum for 24 hours. […] Cell proliferation was assessed by using the MTT technique (MOSMANN, T. Immunol Methods. 16; 65 (1-2):55-63, 1983).

α2A receptors = target: T3, α2A receptors (Rattus norvegicus, UniProt P22909); test: Binding of [3H]RX821002 to α2A receptors (rat cortex membranes); settings: saturation assay
T3 construct: Membrane preparations of rat cortex as described previously in the literature were performed; from tissue; host or cells: rat cortex membranes
T3 sequence (P22909 1-465): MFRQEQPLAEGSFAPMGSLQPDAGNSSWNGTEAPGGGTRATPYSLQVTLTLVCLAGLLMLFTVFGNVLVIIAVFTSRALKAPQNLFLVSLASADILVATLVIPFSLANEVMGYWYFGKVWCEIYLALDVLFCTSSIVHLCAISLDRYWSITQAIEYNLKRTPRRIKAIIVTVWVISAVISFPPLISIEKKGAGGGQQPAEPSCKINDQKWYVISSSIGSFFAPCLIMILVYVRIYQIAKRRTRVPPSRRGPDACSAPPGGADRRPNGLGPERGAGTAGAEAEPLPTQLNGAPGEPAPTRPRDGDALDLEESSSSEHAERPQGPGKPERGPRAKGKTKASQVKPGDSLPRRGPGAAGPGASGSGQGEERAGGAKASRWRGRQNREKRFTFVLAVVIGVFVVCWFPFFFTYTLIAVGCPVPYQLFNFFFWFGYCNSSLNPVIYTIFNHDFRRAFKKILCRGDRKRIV

α1D receptors = target: T4, α1D receptors (Homo sapiens, UniProt P25100); test: Cell proliferation in vitro, DU-145 cells stimulated with phenylephrine (MTT); format: cell-based; settings: 48 h
T4 construct: endogenous in cells; host or cells: DU-145
T4 sequence (P25100 1-572): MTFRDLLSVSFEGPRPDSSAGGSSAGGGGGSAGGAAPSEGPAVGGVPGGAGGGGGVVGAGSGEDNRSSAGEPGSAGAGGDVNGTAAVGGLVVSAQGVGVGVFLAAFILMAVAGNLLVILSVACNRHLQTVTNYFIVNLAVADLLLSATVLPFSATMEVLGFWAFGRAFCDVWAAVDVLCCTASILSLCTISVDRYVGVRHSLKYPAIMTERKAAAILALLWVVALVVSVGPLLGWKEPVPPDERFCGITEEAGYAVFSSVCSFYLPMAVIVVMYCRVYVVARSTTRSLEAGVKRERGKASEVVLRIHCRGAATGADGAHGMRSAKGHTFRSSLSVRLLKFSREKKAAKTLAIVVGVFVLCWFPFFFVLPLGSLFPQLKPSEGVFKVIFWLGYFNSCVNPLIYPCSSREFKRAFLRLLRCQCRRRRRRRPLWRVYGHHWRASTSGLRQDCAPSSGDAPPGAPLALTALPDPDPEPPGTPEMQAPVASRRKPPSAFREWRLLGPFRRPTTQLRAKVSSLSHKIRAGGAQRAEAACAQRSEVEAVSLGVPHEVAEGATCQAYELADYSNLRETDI
Procedure: as §1

prostate cells = settings: DIZEYI et al. Prostate 59 (3): 328-336, 2004; cited from earlier work
α1D adrenoceptors = target: T5, α1D adrenoceptors (Rattus norvegicus, UniProt P23944); test: Phenylephrine-induced contraction inhibition in rat aorta (isometric contraction, Schild KB); format: cell-based; settings: ratio of EC50 in presence and absence of test substance, 10 nM
T5 construct: the rat thoracic aorta corresponds to a tissue expressing mainly α1D-adrenoceptors; from tissue; host or cells: rat thoracic aorta rings
T5 sequence (P23944 1-561): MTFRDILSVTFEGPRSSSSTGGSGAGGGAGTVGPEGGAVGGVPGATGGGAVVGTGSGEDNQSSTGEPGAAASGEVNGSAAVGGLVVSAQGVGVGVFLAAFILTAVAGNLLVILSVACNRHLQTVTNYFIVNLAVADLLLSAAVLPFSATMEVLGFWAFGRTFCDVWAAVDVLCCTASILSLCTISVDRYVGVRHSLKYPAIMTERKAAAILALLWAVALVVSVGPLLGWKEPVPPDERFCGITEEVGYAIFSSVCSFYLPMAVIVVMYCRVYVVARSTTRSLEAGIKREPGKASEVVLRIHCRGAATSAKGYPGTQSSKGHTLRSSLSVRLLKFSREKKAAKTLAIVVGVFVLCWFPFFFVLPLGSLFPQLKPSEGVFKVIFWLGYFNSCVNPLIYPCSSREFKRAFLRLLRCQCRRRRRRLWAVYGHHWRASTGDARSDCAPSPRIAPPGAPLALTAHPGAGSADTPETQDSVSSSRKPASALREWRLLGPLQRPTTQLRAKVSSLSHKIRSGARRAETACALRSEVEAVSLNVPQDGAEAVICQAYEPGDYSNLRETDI
Procedure: Isometric contraction assays were performed using Male Wistar rats, aged 2.5-3 months euthanized as described above. The thoracic aorta (tissue enriched in functional α1D adrenergic receptors) was removed, free from adjacent connective and adipose tissues cut in 3 mm segments. […] The aort segments were then subjected to a preload of 20 mN per 60 minutes. After recovery of tissues maintained for 1 hour at rest, it was performed a contraction induced by phenylephrine (PE) 1 μM (α1 adrenergic receptors selective agonist). In this plateau contraction, in order to promote endothelium-dependent relaxation resulting from the activation of the enzyme endothelial nitric oxide synthase (eNOS) and subsequent release of nitric oxide (NO), acetylcholine 1 μM was added. Rings that relaxed at least 80% were considered to have intact endothelium, were used.
Then the preparation was washed and allowed to stand for 1 hour in order to recover the tissue. Then it was performed cumulative curves to phenylephrine (10^−9 to 10^−5 M) in the presence of propranolol 1 μM (β-adrenoceptor blocker receptors) before and after incubation for 1 hour of the LDT's at 10 or 50 nM. In parallel, a temporal control was performed to rule out any artifacts on the measured contraction, where was added only the vehicle (ultrapure water Milli Q®) instead of the substance to be tested. Strictly following the same protocol as the other tanks wherein it was added the LDT's.
The data were scanned in MacLab 8S system connected to the isometric tension transducer Grass FT-03, which recorded the voltage variation in milinewtons (mN) generated throughout the analysis. The digitized data were then analyzed by Chart 3.4/s software program (MacLab, Inc., USA). In the pharmacological screening process, the initial concentration of the used LDT's was 50 nM, which is considered as cut concentration, i.e., substances that have no effect at this concentration would not investigated in this test. […] The ratio of the EC50 value in these two conditions (with and without LDT) matches the third parameter, called “concentration ratio” (or RC).
log(CR−1)=log [B]−log KB (Equation 1)
Where CR=concentration ratio (EC′50/EC50); [B]=‘B’ antagonist concentration; KB=equilibrium dissociation constant of the antagonist ‘B’.
With this in view, the functional tests of contraction in isolated organ model were performed using these tissues. […] Similarly, targeting to rule out any artifacts on the measured contraction, a time control was performed where only the vehicle was added (ultrapure Mili Q® water) in place of the substance to be tested, strictly following the same protocol as the other vats were added to the LDT's (FIG. 1).

SMILES: COC1(C2=NCCN2)COc2ccccc2O1 (centres unmarked) [[3H] RX821002]
- Kd (α2A receptors): 2.05 ± 0.28 nM

SMILES: COc1ccccc1N1CCN(CCN(C(=O)c2ccc(F)cc2)c2ccccn2)CC1 [p-MPPF, reference compound]
- Proliferation percentage in relation to basel (100%) in the presence of LDT's, 5HT1A (5-HT1A receptors [2]; DU-145, 5-HT 1 μM + test substance 50 nM): 88.9 ± 11.5^b %

SMILES: CCOc1ccccc1OCCN[C@H](C)Cc1ccc(OC)c(S(N)(=O)=O)c1 [tamsulosin]
- inhibition of cell proliferation (prostate cells): does not inhibit cell proliferation

Continued, values first:

- pharmacological classification (5-HT1A receptors [1]): full antagonist
- Proliferation percentage in relation to basel (100%), 5-HT1A (5-HT1A receptors [2]; DU-145, stimulus alone, 5-HT 1 μM): 137.1 ± 5.2%
SMILES: Cl.NCCc1c[nH]c2ccc(O)cc12 [5-HT, 5-hydroxytryptamine hydrochloride]

- Proliferation percentage in relation to basel (100%), α1D (α1D receptors; DU-145, stimulus alone, phenylephrine 3 μM): 138.8 ± 2.6%
SMILES: CNC[C@H](O)c1cccc(O)c1 [Phenylephrine, (R)-(−)-phenylephrine hydrochloride, reference compound]

- Proliferation percentage in relation to basel (100%) in the presence of LDT's, α1D (α1D receptors; DU-145, phenylephrine 3 μM + test substance 50 nM): 90.98 ± 11.7^a %
- CR ± EPM (α1D adrenoceptors): 4.4 ± 0.8
SMILES: COc1ccccc1N1CCN(CCN2C(=O)CC3(CCCC3)CC2=O)CC1 [BMY7378, reference compound]
